Results: US10472347B2, “Aminopyrazine compounds with A2A antagonist properties” (Merck Sharp & Dohme Corp., priority 2014, dated 2019)

target: T1, human A2a receptor (Homo sapiens, UniProt P29274); experiment: A2a competition binding assay, Scintillation Proximity technology; details: membranes from HEK293 cells expressing human A2a receptor; Ki by Cheng-Prusoff equation
T1 construct: purchased Perkin-Elmer RBHA2AM400UA; host or cells: HEK293 cells (membranes)
How it was run: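 Membranes from HEK293 cells expressing human A2a, adenosine deaminase-treated, incubated 1 h at room temperature with compound (3000 to 0.15 nM) and 0.5 nM tritiated pyrazolotriazolopyrimidine radioligand on WGA SPA beads in Ca/Mg-free PBS + 10 mM MgCl2. Non-specific binding with 1 μM CGS15943; Ki by Cheng-Prusoff.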

T1 sequence (P29274 whole entry): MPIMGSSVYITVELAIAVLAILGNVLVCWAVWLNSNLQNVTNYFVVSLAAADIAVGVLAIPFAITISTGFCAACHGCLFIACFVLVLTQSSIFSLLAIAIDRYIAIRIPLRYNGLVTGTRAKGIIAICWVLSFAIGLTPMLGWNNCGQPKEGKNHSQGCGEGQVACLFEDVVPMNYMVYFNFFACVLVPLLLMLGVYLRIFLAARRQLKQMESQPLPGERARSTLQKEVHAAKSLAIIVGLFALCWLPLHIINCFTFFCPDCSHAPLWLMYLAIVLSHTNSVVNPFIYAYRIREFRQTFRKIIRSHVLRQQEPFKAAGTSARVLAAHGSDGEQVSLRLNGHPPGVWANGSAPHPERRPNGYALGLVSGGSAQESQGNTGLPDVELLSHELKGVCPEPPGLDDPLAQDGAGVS

Question: How did the Ki turn out when `Cc1coc(-c2nc(N)c(C(=O)NCc3ncccc3C)nc2C)n1` [Ex-380, 3-amino-6-methyl-5-(4-methyl-1,3-oxazol-2-yl)-N-[(3-methylpyridin-2-yl)methyl]pyrazine-2-carboxamide] was run?
Answer: The Ki was 0.384 nM.

Question: With `Cc1cccnc1CNC(=O)c1nc(C)c(-c2nc(C)c(C)o2)nc1N` [Ex-381, 3-amino-5-(4,5-dimethyl-1,3-oxazol-2-yl)-6-methyl-N-[(3-methylpyridin-2-yl)methyl]pyrazine-2-carboxamide] as the compound, how does the Ki read?
Answer: Its Ki is 80.5 nM.

Question: How did the Ki turn out when `COCc1coc(-c2nc(N)c(C(=O)NCc3ncccc3C)nc2C)n1` [Ex-382, 3-amino-5-[4-(methoxymethyl)-1,3-oxazol-2-yl]-6-methyl-N-[(3-methylpyridin-2-yl)methyl]pyrazine-2-carboxamide] was run?
Answer: The Ki was 38.4 nM.

Question: Which Ki does the source give for `Cc1cnc(-c2nc(N)c(C(=O)NCc3ncccc3C)nc2C)o1` [Ex-383, 3-amino-6-methyl-5-(5-methyl-1,3-oxazol-2-yl)-N-[(3-methylpyridin-2-yl)methyl]pyrazine-2-carboxamide] here?
Answer: Its Ki is 6.4 nM.

Question: For `Cc1cccnc1CNC(=O)c1nc(C)c(-c2ncc(C(F)(F)F)o2)nc1N` [Ex-384, 3-amino-6-methyl-N-[(3-methylpyridin-2-yl)methyl]-5-[5-(trifluoromethyl)-1,3-oxazol-2-yl]pyrazine-2-carboxamide], which Ki is on record?
Answer: The Ki was 63.7 nM.

Question: `N#Cc1nc(C(=O)NCc2cccc3cccnc23)c(N)nc1-n1cccn1` [Ex-385, 3-amino-6-cyano-5-(1H-pyrazol-1-yl)-N-(quinolin-8-ylmethyl)pyrazine-2-carboxamide] was tested. Which Ki did it give?
Answer: The Ki was 0.6 nM.

Question: Which Ki does the source give for `N#Cc1nc(C(=O)NCc2ncccc2C(F)(F)F)c(N)nc1-c1ncco1` [Ex-386, 3-amino-6-cyano-5-(1,3-oxazol-2-yl)-N-{[3-(trifluoromethyl)pyridin-2-yl]methyl}pyrazine-2-carboxamide] here?
Answer: Its Ki is 0.3 nM.

Question: `Cc1cnn(-c2nc(N)c(C(=O)NCc3cccc4cccnc34)nc2C(F)F)c1` [Ex-387, 3-amino-6-(difluoromethyl)-5-(4-methyl-1H-pyrazol-1-yl)-N-(quinolin-8-ylmethyl)pyrazine-2-carboxamide] was tested. Which Ki did it give?
Answer: Its Ki is 2.8 nM.

Question: `Nc1nc(-n2nccn2)c(CO)nc1C(=O)NCc1cccc2cccnc12` [Ex-388, 3-amino-6-(hydroxymethyl)-N-(quinolin-8-ylmethyl)-5-(2H-1,2,3-triazol-2-yl)pyrazine-2-carboxamide] was tested. Which Ki did it give?
Answer: The Ki was 2.5 nM.
